“Also recorded” adds a separate entry of the source. Like-named read-outs stand apart in the source and are kept apart here.
Columns and labels:
KB cells (FR+) = type: cell-based, Human; conditions: for In vitro specificity (fold) (d): IC50 competed group vs non-competed group
Description: METHOD. Inhibition of Cellular DNA Synthesis. The compounds described herein are evaluated using an in vitro cytotoxicity assay that predicts the ability of the drug to inhibit the growth of folate receptor-positive cells, such as KB cells, RAW264.7 macrophages, and the like. It is to be understood that the choice of cell type can made on the basis of the susceptibility of those selected cells to the drug that forms the conjugate. The test compounds are comprised of folate linked to a respective chemotherapeutic drug, as prepared according to the processes described herein. The test cells are exposed to varying concentrations of folate-drug conjugate, and also in the absence or presence of at least a 100-fold excess of folic acid to assess activity as being specific to folate receptor mediation.
EXAMPLE. Conjugates of cytotoxic drugs described herein are active against KB cells. The activity is mediated by the folate receptor as indicated by competition experiments using co-administered folic acid. KB cells are exposed for up to 7 h at 37° C. to the indicated concentrations of folate-drug conjugate in the absence or presence of at least a 100-fold excess of folic acid. The cells are then rinsed once with fresh culture medium and incubated in fresh culture medium for 72 hours at 37° C. Cell viability was assessed using a ^3H-thymidine incorporation assay.
METHOD. In vitro activity against various cancer cell lines. IC50 values are generated for various cell lines. Cells are heavily seeded in 24-well Falcon plates and allowed to form nearly confluent monolayers overnight. Thirty minutes prior to the addition of the test compound, spent medium is aspirated from all wells and replaced with fresh folate-deficient RPMI medium (FFRPMI). A subset of wells are designated to receive media containing 100 μM folic acid. The cells in the designated wells are used to determine the targeting specificity. Without being bound by theory it is believed herein that the cytotoxic activity produced by test compounds in the presence of excess folic acid, i.e. where there is competition for FR binding, corresponds to the portion of the total activity that is unrelated to FR-specific delivery. Following one rinse with 1 mL of fresh FFRPMI containing 10% heat-inactivated fetal calf serum, each well receives 1 mL of medium containing increasing concentrations of test compound (4 wells per sample) in the presence or absence of 100 μM free folic acid as indicated. Treated cells are pulsed for 2 h at 37° C., rinsed 4 times with 0.5 mL of media, and then chased in 1 mL of fresh medium up to 70 h. Spent medium is aspirated from all wells and replaced with fresh medium containing 5 μCi/mL ^3H-thymidine. Following a further 2 h 37° C. incubation, cells are washed 3 times with 0.5 mL of PBS and then treated with 0.5 mL of ice-cold 5% trichloroacetic acid per well. After 15 min, the trichloroacetic acid is aspirated and the cell material solubilized by the addition of 0.5 mL of 0.25 N sodium hydroxide for 15 min. A 450 μL aliquot of each solubilized sample is transferred to a scintillation vial containing 3 mL of Ecolume scintillation cocktail and then counted in a liquid scintillation counter. Final results are expressed as the percentage of ^3H-thymidine incorporation relative to untreated controls.

KB tumors = experiment: Inhibition of tumor growth, s.c. KB tumors in nu/nu mice; type: in vivo; set-up: key to In vivo activity (e): CR = complete response, where tumor volume, as defined herein, during the observation period was zero for all test animals in the group; conditions: for In vivo activity (e): subcutaneous KB tumor in nu/nu mice
Description: METHOD. Inhibition of Tumor Growth in Mice. […] For tumor cell inoculation, 1×10^6 M109 cells (a syngeneic lung carcinoma) in Balb/c strain, or 1×10^6 KB cells in nu/nu strain, in 100 μL are injected in the subcutis of the dorsal medial area (right axilla).
METHOD. Toxicity as Measured by Weight Loss. The percentage weight change of the test animals is determined on selected days post-tumor inoculation (PTI), and during dosing. The results are graphed.

[1] = Plasma stability / free drug release after s.c. dose (EC1496 vs EC0746); type: in vivo, rats
Description: METHOD. Human serum stability. Compounds described herein are tested in human serum for stability using conventional protocols and methods. Briefly, test compound is administered to the test animal, such as by subcutaneous injection. The plasma concentration of the conjugate, and optionally one or more metabolites, is monitored over time. The results are graphed to determine Cmax, Tmax, half-life, and AUC for the test compound and metabolites.
EXAMPLE. […] EC1495 and EC0746 (comparator compound) are each administered at 500 nmol/kg by subcutaneous injection. The plasma concentration of the conjugate and the metabolites (aminopterin and aminopterin hydrazide) are monitored over time. […] As also shown in the following table, free drug is released as the parent aminopterin and the hydrazide derivative (EC0470).

[2] = biological target: T1, folate receptors (FRs) on KB cells (Homo sapiens, UniProt P15328); experiment: Relative affinity assay (3H-folic acid competition) on KB cells; type: binding; conditions: for Relative Affinity (a) compared to folic acid: folic acid = 1, in 10% serum/FDRPMI
T1 construct: FR-positive KB cells are heavily seeded into 24-well cell culture plates; endogenous in cells; host or cells: KB cells
T1 sequence (P15328 25-234): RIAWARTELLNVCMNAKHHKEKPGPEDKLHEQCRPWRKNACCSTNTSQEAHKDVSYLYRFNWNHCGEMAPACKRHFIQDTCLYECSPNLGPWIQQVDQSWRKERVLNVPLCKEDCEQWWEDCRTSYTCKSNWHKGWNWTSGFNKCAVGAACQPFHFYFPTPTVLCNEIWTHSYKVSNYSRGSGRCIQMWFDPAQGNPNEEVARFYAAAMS
Description: METHOD. Relative Affinity Assay. The affinity for folate receptors (FRs) relative to folate is determined according to a previously described method (Westerhof, G. R., J. H. Schornagel, et al. (1995) Mol. Pharm. 48: 459-471) with slight modification. Briefly, FR-positive KB cells are heavily seeded into 24-well cell culture plates and allowed to adhere to the plastic for 18 h. Spent incubation media is replaced in designated wells with folate-free RPMI (FFRPMI) supplemented with 100 nM ^3H-folic acid in the absence and presence of increasing concentrations of test article or folic acid. Cells are incubated for 60 min at 37° C. and then rinsed 3 times with PBS, pH 7.4. Five hundred microliters of 1% SDS in PBS, pH 7.4, is added per well. Cell lysates are then collected and added to individual vials containing 5 mL of scintillation cocktail, and then counted for radioactivity. Negative control tubes contain only the ^3H-folic acid in FFRPMI (no competitor). Positive control tubes contain a final concentration of 1 mM folic acid, and CPMs measured in these samples (representing non-specific binding of label) are subtracted from all samples.

[3] = Plasma clearance after s.c. administration; type: in vivo, Lewis rats; conditions: EC1669 500 nmol/kg s.c.
Description: METHOD. Plasma clearance. In vivo studies include a minimum of 3 test animals, such as rats, per time point. Illustratively, female Lewis rats with jugular vein catheters (Harlan, regular rodent diet) are given a single subcutaneous injection of test compound, such as EC1669 at 500 nmol/kg. Whole blood samples (300 μL) are collected at the following time points: 1 min, 10 min, 30 min, 1 h, 2 h, 3 h, 4 h, 8 h, and 12 h after injection. The blood samples are placed into anti-coagulant tubes containing 1.7 mg/mL of K3-EDTA and 0.35 mg/mL of N-maleoyl-beta-alanine (0.35 mg/mL) in a 0.15% acetic acid solution. Plasma samples are obtained by centrifugation for 3 min at ˜2,000 g and stored at −80° C. The amounts of test compound in the plasma and any metabolites, such as EC1669 and its two active metabolites aminopterin (AMT) and AMT hydrazide (EC0470), respectively, are quantified by LC-MS/MS.

[4] = IC50 for test compound when competed with excess folic acid, read-out: 50% competition (nM) (c)
[5] = as determined by thymidine incorporation, read-out: In vitro IC50 (nM) (b)

Compound	In vitro specificity (fold) (d) (KB cells (FR+))	In vivo activity (e) (KB tumors)	Relative Affinity (a) compared to folic acid [2]	IC50 (KB cells (FR+); [4]) [nM]	IC50 (KB cells (FR+); [5]) [nM]	also measured
N=c1[nH]c(N)nc2ncc(CNc3ccc(C(=O)N[C@@H](CCC(=O)NNC(=O)OCCSSC[C@H](NC(=O)[C@H](CCC(=O)NC[C@H](O)[C@@H](O)[C@H](O)[C@H](O)CO)NC(=O)[C@H](CCC(=O)O)NC(=O)[C@H](CCC(=O)NC[C@H](O)[C@@H](O)[C@H](O)[C@H](O)CO)NC(=O)[C@H](CCC(=O)O)NC(=O)[C@H](CCC(=O)NC[C@H](O)[C@@H](O)[C@H](O)[C@H](O)CO)NC(=O)CC[C@H](NC(=O)c4ccc(NCc5cnc6nc(N)[nH]c(=O)c6n5)cc4)C(=O)O)C(=O)O)C(=O)O)cc3)nc12 [EC0531, reference compound]	237	CR	–	–	–	–
CCCC(=O)OCN(C(=O)[C@@H](NC(=O)[C@H]1CCCCN1C)C(C)CC)[C@H](C[C@H](OC(C)=O)c1nc(C(=O)N[C@H](Cc2ccc(O)cc2)C[C@H](C)C(=O)NNC(=O)OCCSSC[C@H](NC(=O)[C@H](CCC(=O)NC[C@H](O)[C@@H](O)[C@H](O)[C@H](O)CO)NC(=O)[C@H](CCC(=O)O)NC(=O)[C@H](CCC(=O)NC[C@H](O)[C@@H](O)[C@H](O)[C@H](O)CO)NC(=O)[C@H](CCC(=O)O)NC(=O)[C@H](CCC(=O)NC[C@H](O)[C@@H](O)[C@H](O)[C@H](O)CO)NC(=O)CC[C@H](NC(=O)c2ccc(NCc3cnc4nc(N)[nH]c(=O)c4n3)cc2)C(=O)O)C(=O)O)cs1)C(C)C (some centres unmarked) [EC0746, reference compound]	–	–	–	–	–	Free drug released (%): AMT ([1]; 500 nmol/kg s.c., plasma): 11.0%; Free drug released (%): AMT-hydrazide (EC0470) ([1]; 500 nmol/kg s.c., plasma): 7.4%; Free drug released (%): Total ([1]; 500 nmol/kg s.c., plasma): 18.4%; drug released relative to EC1496 ([1]; after a subcutaneous dose in rats): more than 2 fold
CCCC(=O)OCN(C(=O)[C@@H](NC(=O)[C@H]1CCCCN1C)C(C)CC)[C@H](C[C@@H](OC(C)=O)c1nc(C(=O)N[C@@H](Cc2ccc(O)cc2)C[C@H](C)C(=O)NNC(=O)OCCSSC[C@@H](NC(=O)[C@@H](CC(=O)O)NC(=O)[C@@H](CC(=O)O)NC(=O)[C@@H](CCCNC(=N)N)NC(=O)[C@@H](CC(=O)O)NC(=O)CC[C@@H](NC(=O)c2ccc(NCc3cnc4nc(N)[nH]c(=O)c4n3)cc2)C(=O)O)C(=O)O)cs1)C(C)C (some centres unmarked) [EC1299]	778	CR	0.29	700	0.9	–
CCCC(=O)OCN(C(=O)[C@@H](NC(=O)[C@H]1CCCCN1C)C(C)CC)[C@H](C[C@@H](OC(C)=O)c1nc(C(=O)N[C@@H](Cc2ccc(O)cc2)C[C@H](C)C(=O)NNC(=O)OCCSSC(C)(C)[C@@H](NC(=O)[C@@H](CC(=O)O)NC(=O)[C@@H](CC(=O)O)NC(=O)[C@@H](CCCNC(=N)N)NC(=O)[C@@H](CC(=O)O)NC(=O)CC[C@@H](NC(=O)c2ccc(NCc3cnc4nc(N)[nH]c(=O)c4n3)cc2)C(=O)O)C(=O)O)cs1)C(C)C (some centres unmarked) [EC1393]	300	–	0.25	–	–	–
CCCC(=O)OCN(C(=O)[C@@H](NC(=O)[C@H]1CCCCN1C)C(C)CC)[C@H](C[C@@H](OC(C)=O)c1nc(C(=O)N[C@@H](Cc2ccc(O)cc2)C[C@H](C)C(=O)NNC(=O)OCCSSC[C@@H](NC(=O)[C@H](CC(=O)O)NC(=O)[C@H](CC(=O)O)NC(=O)[C@H](CCCNC(=N)N)NC(=O)[C@H](CC(=O)O)NC(=O)CC[C@H](NC(=O)c2ccc(NCc3cnc4nc(N)[nH]c(=O)c4n3)cc2)C(=O)O)C(=O)O)cs1)C(C)C (some centres unmarked) [EC1548]	78	CR	0.23	350	4.4	–
CCCC(=O)OCN(C(=O)[C@@H](NC(=O)[C@H]1CCCCN1C)C(C)CC)C(C[C@@H](OC(C)=O)c1nc(C(=O)N[C@@H](Cc2ccc(O)cc2)C[C@H](C)C(=O)NNC(=O)OCCSSC[C@@H](NC(=O)[C@@H](CC(=O)O)NC(=O)[C@H](CC(=O)O)NC(=O)[C@H](CCCNC(=N)N)NC(=O)[C@H](CC(=O)O)NC(=O)CC[C@H](NC(=O)c2ccc(NCc3cnc4nc(N)[nH]c(=O)c4n3)cc2)C(=O)O)C(=O)O)cs1)C(C)C (some centres unmarked) [EC1549]	78	CR	0.90	350	4.5	–
CCCCOCN(C(=O)[C@@H](NC(=O)[C@H]1CCCCN1C)C(C)CC)[C@H](C[C@@H](OC(C)=O)c1nc(C(=O)N[C@@H](Cc2ccc(O)cc2)C[C@H](C)C(=O)NNC(=O)OCCSSC[C@@H](NC(=O)[C@H](CCC(=O)NC[C@H](O)[C@@H](O)[C@H](O)[C@H](O)CO)NC(=O)[C@@H](CCC(=O)O)NC(=O)[C@H](CCC(=O)NC[C@H](O)[C@@H](O)[C@H](O)[C@H](O)CO)NC(=O)[C@@H](CCC(=O)O)NC(=O)[C@H](CCC(=O)NC[C@H](O)[C@@H](O)[C@H](O)[C@H](O)CO)NC(=O)CC[C@@H](NC(=O)c2ccc(NCc3cnc4nc(N)[nH]c(=O)c4n3)cc2)C(=O)O)C(=O)O)cs1)C(C)C (some centres unmarked) [EC1663]	–	–	–	–	–	partial responses (test animals) (KB tumors; 0.5 μmol/kg i.v. TIW, 2 weeks): 4/4; whole animal toxicity (KB tumors; 0.5 μmol/kg i.v. TIW, 2 weeks): did not exhibit significant host animal toxicity; also recorded: whole animal toxicity was not observed
CN(Cc1cnc2nc(N)nc(N)c2n1)c1ccc(C(=O)N[C@@H](CCC(=O)O)C(=O)O)cc1 [methotrexate, reference compound]	–	–	–	–	–	binding to the cell surface FRs ([2]; in comparison to EC1669): poor binding
aminopterin hydrazide [EC0470, reference compound]	–	–	–	–	–	AUC of EC1669-derived metabolite [3]: 3.9 nmol·min/mL; elimination half-life of EC1669-derived metabolite [3]: 1.87 h; Cmax ([3]; plasma, read-out: Cmax of EC1669-derived metabolite): 21 nM
